Reference: patent US20090253206A1, “NUCLEAR TRANSPORT AGENT AND METHOD FOR PRODUCING SAID AGENT” (LONZA COLOGNE AG, priority 2006, published 2009)
Ends that are not written are not given here.

Tests used:
pmaxGFP plasmid DNA [1] = assay: Electrophoretic mobility shift assay in agarose gel, peptides with different positive net charges (FIG. 2); assay type: binding; details: 1 μg DNA with 1 nM peptide in water, 20 μl, 20° C., 30 min; 0.6% agarose gel
Method: 1 μg DNA was incubated with 1 nM peptide in water in a total volume of 20 μl at 20° C. for 30 min. After that loading dye was added, each sample filled into a slot of a 0.6% agarose gel (Tris-acetate/EDTA as running buffer, pH 8.5). Electrophoresis was run at 90V for 120 min. P=1 μg plasmid DNA without peptide. M=kb marker (bands indicating 1.5, 2, 3, 4, 5, and 6 kb). The gel was stained with Ethidiumbromide for 10 min, then documented using a BioRad Gel-Doc System.
DNA interacting unspecifically with peptides through positively charged amino acids may mask positively charged nuclear localisation sequences (NLS) and interfere with their function in nuclear transport. […] Peptides were designed with different positive net charges, 5+, 4+, 3+, 2+, 0±, by exchanging neutral amino acids for acidic ones or vice versa acidic for neutral amino acids
(§1) Peptides were synthesized by F-moc-chemistry and HPLC-purified to 95% purity. The carboxyl-group at the C-terminus was amidated and the N-terminal amino-group was actylated, in order to eliminate additional charges.
(§2) The NLS on the NLS-1 peptide may be masked and altered in its capacity to mediate nuclear translocation, whereas all other peptides are still functioning in nuclear import.

pmaxGFP plasmid DNA [2] = assay: Electrophoretic mobility shift assay in agarose gel, NLS peptides in water (FIG. 1); assay type: binding; details: 1 μg DNA with μg amounts of peptide in water, 20 μl, 20° C., 30 min; 0.6% agarose gel
Method: 1 μg DNA was incubated with peptide (μg amounts as indicated in the figure) in water in a total volume of 20 μl at 20° C. for 30 min. After that loading dye was added, each sample filled into a slot of a 0.6% agarose gel (Tris-acetate/EDTA as running buffer, pH 8.5). Electrophoresis was run at 90V for 120 min. P=1 μg plasmid DNA without peptide. M=kb marker (bands indicating 1.5, 2, 3, 4, 5, and 6 kb). The gel was stained with Ethidiumbromide for 10 min, then documented using a BioRad Gel-Doc System.
DNA interacting unspecifically with peptides through positively charged amino acids may mask positively charged nuclear localisation sequences (NLS) and interfere with their function in nuclear transport.
Peptides were synthesized by F-moc-Chemistry and HPLC-purified to 95% purity. The carboxyl-group at the C-terminus was amidated and the N-terminal amino-group was actylated, in order to eliminate additional charges.
DNA was pmaxGFP plasmid DNA ([…] size).
as §2

pmaxGFP plasmid DNA [3] = assay: DNA-band shift of plasmid DNA with positively charged peptides and peptide-NLS in Opti-MEM (FIGS. 3 and 4); assay type: binding; details: 90 ng or 135 ng DNA, various peptide amounts in Opti-MEM, 20° C., 30 min; comparison between peptides
Method: Plasmid DNA (90 ng per sample) was incubated with different amounts (numbers above each lane indicate pico-mole amounts per sample) of positively charged peptides (see list of peptide sequences for details) in Opti-MEM as described below.
Several positively charged peptides, as well as positively charged peptides bearing a positively charged NLS (NLS1) or a neutral NLS (NLS2) were tested for their ability to complex DNA and form higher aggregates, visible as shifts of the electrophoretic mobility of the DNA.
as §1, with “charges. U represents the spacer molecule 8-amino-3,6-dioxaoctanoic acid (UUU (U3) represents a trimer of U):” for “charges.”
Lyophilized peptides, provided by supplier, were dissolved in distilled water to 0.1 mM. DNA was pmaxGFP plasmid DNA, 3.7 kb size (amaxa AG, Cologne), dissolved in water at 1 mg/ml. The plasmid encodes a green fluorescent protein (GFP).
For DNA-band shift experiments 90 ng or 135 ng DNA, resp., were incubated with various amounts of peptide (indicated in the figure) in Opti-MEM (Invitrogen) in a total volume of 60 μl or 90 μl, resp., at 20° C. for 30 min. Loading dye was added before each sample was filled into a slot of a 0.6% agarose gel (40 mM Tris-acetate/1 mM EDTA as running buffer, pH 8.0). Electrophoresis was run at 90V for 120 min.
P=90 ng plasmid DNA without peptide M=kb marker (bands indicating 0.5, 1, 1.5, 2, 3, 4, 5, 6, 8, and 10 kb).
The gel was stained with Ethidiumbromide for 10 min, then documented using a BioRad Gel-Doc System.
With increasing amounts of peptide the DNA band is gradually shifting, indicating decreased electrophoretic mobility due to higher molecular size of the peptide-DNA complexes and due to decrease in negative charge of the DNA compensated by the positively charged peptides. As the concentration of the peptide further increases, the molecular weight of the complexes increases as well. The complexes are therefore hardly moving into the gel, the bands appear right below the loading slot. The plasmid DNA is represented by two bands in the gel, one dominant band of super-coiled slightly above 2 kb, and a weaker band between 3 and 4 kb showing the relaxed plasmid DNA.

[4] = system: Human Umbilical Vein Endothelial Cells (HUVEC); assay: Transfection of HUVEC with ExGen500 and peptide-NLS, GFP expression by flow cytometry; assay type: cell-based; details: for transfection efficiency (percentage of GFP-positive cells of all viable cells): ExGen500, 1.5 μg DNA, 24 hours post transfection; for change of transfection efficiency (in words): FIG. 5 and FIG. 6
Method: (§3) Cells were grown and seeded as described below. FACS data of duplicate samples are shown.
Cells were grown and seeded as described below. Mean values of the duplicate samples are shown.
(§4) Human Umbilical Vein Endothelial Cells (HUVEC, from LONZA) were grown in EGM-2 medium (Bullet Kit, LONZA) and seeded in 12-well plates one day before transfection at a density of 1.2×10^5 cells per well in 1 ml EGM-2 medium (LONZA).
(§5) Transfection reagents were ExGen500 (Fermentas) and HiFect (amaxa) used according to manufacturer's protocols. Plasmid-DNA (1.5 μg), coding for green fluorescent protein (pmaxGFP, amaxa) was complexed with peptides (amounts as indicated in the figures) for 30 min at room temperature prior to mixing with transfection reagent.
For transfection with ExGen500 complex formation was done in 30 μl 150 mM NaCl solution. These preformed DNA-peptide complexes were added to transfection reagent (diluted in Opti-MEM or 150 mM NaCl according to manufacturer's protocols) and incubated.
(§6) Complete transfection samples were added to HUVEC in Opti-MEM, incubated for 1 h at 37° C./5% CO2 in a humidified incubator. Medium was aspirated, cells washed with PBS twice. Fresh medium was added, and cells were incubated for another 23 h, then prepared for flow cytometry. To differentiated PC12 transfection samples were added in Opti-MEM, incubated for 1 h. After supernatant was removed fresh medium was added. Expression of maxGFP was measured by flow cytometry and expressed as transfection efficiency (percentage of GFP-positive cells of all viable cells) and X-mean (mean fluorescent intensity of the cells) 24 h after transfection (HUVEC), 48 h or 72 h after transfection in the case of PC12.

[5] = system: neuronally differentiated PC12 cells; assay: Transfection of neuronally differentiated PC12 cells with HiFect and peptide-NLS, GFP expression by flow cytometry; assay type: cell-based; details: differentiated PC12, HiFect, 1 μg DNA
Method: (§7) Cells were grown and seeded as described below. FACS data of mean values of the duplicate samples are shown.
PC12 cells (from ATCC) were grown in F-12K medium (ATCC) with 15% horse serum (Gibco) and 2.5% foetal calf serum (ATCC). Cells were seeded in 12-well plates; 5×10^4 coated with collagen (from rat tail (SIGMA), 60 μg per well, dissolved in 0.005% acetic acid/30% ethanol at 60 μg per ml). After one day of culture nerve growth factor (NGF-β from SIGMA, 100 ng/ml final concentration) was added to differentiate neuronal cells. 7 days after start of differentiation, cells were used for transfection.
Transfection reagents were ExGen500 (Fermentas) and HiFect (amaxa) used according to manufacturer's protocols. […]
(§8) For transfection with HiFect complex formation of DNA and peptide was done in 250 μl Opti-MEM (Invitrogen) for each sample.
as §6, with “To differentiated PC12 transfection samples were added in Opti-MEM, incubated for 1 h. After supernatant was removed fresh medium was added.” left out, “PC12. […]” for “PC12.”

[6] = system: Human Umbilical Vein Endothelial Cells (HUVEC); assay: Transfection of HUVEC with HiFect and peptide-NLS, GFP expression by flow cytometry; assay type: cell-based; details: HiFect, 1.5 μg DNA, 24 hours post transfection, FIG. 8 and FIG. 9
Method: as §3, §7, §4, §5, §8
as §6, with “Fresh medium was added, and cells were incubated for another 23 h, then prepared for flow cytometry. To differentiated PC12 transfection samples were added in Opti-MEM, incubated for 1 h. After supernatant was removed fresh medium was added.” left out

GSGSPKKKRKVGSG (Ac-GSGSPKKKRKVGSG-NH2) [NLS-1, SV40 large T-antigen core NLS with glycine and serine flanks]
alteration of the electrophoretic mobility of DNA (binding to DNA, aggregates) (pmaxGFP plasmid DNA [1]): do bind to DNA and form aggregates | alteration of the electrophoretic mobility of DNA (binding to DNA, aggregates) (pmaxGFP plasmid DNA [2]): does bind to DNA and forms aggregates

KKKKK KKKKK KKKKK K-UUU (Ac-KKKKKKKKKKKKKKKK; not fully specified (C-terminus); printed as KKKKK KKKKK KKKKK K-UUU) [K16U3]
peptide amount needed to form a high molecular weight complex / total band shift (pmaxGFP plasmid DNA [3]): form a high molecular weight complex (i.e. no migration into the gel) at the same concentrations | transfection efficiency (percentage of GFP-positive cells of all viable cells) ([4]; FIG. 5): 49.5% | change of transfection efficiency (in words) ([4]; ExGen500, 24 h): decreasing transfection efficiency

KKKKK KKKKK KKKKK K-UUU-EEDTP PKKKR KVED [K16U3-NLS2]
maximum increase in transfection efficiency, factor ([5]; 72 hours post transfection, compared to HiFect without peptide, FIG. 10): 2.6 | transfection efficiency (percentage of GFP-positive cells of all viable cells) ([4]; FIG. 5): 69% | increase of transfection efficiency, factor ([4]; ExGen500, 24 h, compared to peptide K16U3 without NLS, FIG. 5): 1.4

KKKKK KKKKK KKKKK K-UUU-GSGSP KKKRK VGSG [K16U3-NLS1]
change of transfection efficiency (in words) ([4]; ExGen500, 24 h): increase of transfection efficiency is less distinctive

KKKKK KKKKK KKKKK KGGGS (Ac-KKKKKKKKKKKKKKKKGGGS-NH2) [K16GGGS]
peptide amount needed to form a high molecular weight complex / total band shift (pmaxGFP plasmid DNA [3]): form a high molecular weight complex (i.e. no migration into the gel) at the same concentrations

KKKKKKKKKKKKKKKKKKKKKKKKKGGGS (KKKKKKKKKKKKKKKKKKKKKKKKKGGGS; DNA-anchoring peptide) [K25GGGS]
peptide amount needed to form a high molecular weight complex / total band shift (pmaxGFP plasmid DNA [3]): cause a total shift to decreased electrophoretic mobility at lower peptide amounts than K16GGGS and K16U3

RKKRKRKKRKRKKRKRKKRKGGGS (Ac-RKKRKRKKRKRKKRKRKKRKGGGS-NH2) [RKK20GGGS]
peptide amount needed to form a high molecular weight complex / total band shift (pmaxGFP plasmid DNA [3]): cause a total shift to decreased electrophoretic mobility at lower peptide amounts than K16GGGS and K16U3

RKKRK RKKRK RKKRK RKKRK-PEG27- EEDTP PKKKR KVED [RKK20-PEG27-NLS2]
peptide amount needed to form a high molecular weight complex / total band shift (pmaxGFP plasmid DNA [3]): behaves similarly | maximum increase in transfection efficiency, factor ([5]; compared to peptide RKK20 without NLS, 200 pmol resp., FIG. 11): 2.8 | increase in transfection efficiency, factor ([4]; ExGen500, 24 h, FIG. 7, comparator not stated): 1.2 | increase in transfection efficiency, factor [6]: 1.5

RKKRK RKKRK RKKRK RKKRK-UUU-EEDTP PKKKR KVED [RKK20U3-NLS2]
peptide amount needed to form a high molecular weight complex / total band shift (pmaxGFP plasmid DNA [3]): seems to increase the peptide amount necessary for a total band shift | increase in transfection efficiency, factor ([4]; ExGen500, 24 h, compared to DNA transfected without any peptide or complexed with RKK20GGGS peptide without NLS, FIG. 6): 1.2 | peptide amount sufficient for increase in transfection efficiency (in words) ([4]; ExGen500, FIG. 5 versus FIG. 6): lower amount of RKKU3-NLS2 than of K16U3-NLS2 is sufficient | increase in transfection efficiency, factor [6]: 2

RKKRK RKKRK RKKRK RKKRK-UUU-GSGSP KKKRK VGSG [RKK20U3-NLS1]
peptide amount needed to form a high molecular weight complex / total band shift (pmaxGFP plasmid DNA [3]): does not behave much differently to the RKK20GGGS peptide | change of transfection efficiency (in words) ([4]; ExGen500, 24 h): increase is higher for the NLS2-peptide than for the NLS1-bearing peptide
